In patent US20210252159A1, “CONJUGATES OF CARTILAGE-HOMING PEPTIDES” (priority 2018, published 2021):

Legend:
[1] = Rat CIA biodistribution study (QWBA); type: in vivo; conditions: CIA rats
Description: 50 uCi, 400 nmol of each compound was given intravenously (IV) through the tail vein and allowed to circulate 1 hour, 3 hours, or 24 hours. Rats were euthanized by CO2 asphyxiation, shaved, and frozen in dry ice chilled hexane. QWBA was performed and quantified as described.
Frozen carcasses were allowed to off gas hexane overnight at −20° and then embedded in chilled 2% carboxymethylcellulose (Sigma Aldrich) and sectioned sagittally at a thickness of 40 μm on an H/I Bright 8250 Cryostat (Hacker Instruments). Radioactive control guides were drilled into each block to verify even cutting depth along the length of the section. […]
(§1) Quantification of the radioactivity detected in WBA samples was evaluated by measuring the pixel density/mm^2 (“SI”: Signal Intensity/Area−background) using AIDA Image Analyzer v 5.1 Whole Body Autoradiography Professional software (Raytest). […] For quantification, all visible knee or IVD (intervertebral disc) tissues for one rodent across all collected sections were measured and averaged together to generate one knee or IVD value per animal. […] To collect quantified values for other tissues, ROIs were drawn around blood in the heart ventricle, spinotrapezius muscle, the liver, or the kidney (including cortex and medulla) in all sections in which the tissue was observed and then averaged to yield one value per tissue per animal. […]

[2] = Comparison of joint retention time among radiolabeled peptides (QWBA, knee and IVD); type: in vivo; set-up: Peptide Signal Retention in Knee / Peptide Signal Retention in IVD: unit not given here
Description: Frozen carcasses were allowed to off gas hexane overnight at −20° and then embedded in chilled 2% carboxymethylcellulose (Sigma Aldrich) and sectioned sagittally at a thickness of 40 μm on an H/I Bright 8250 Cryostat (Hacker Instruments). Radioactive control guides were drilled into each block to verify even cutting depth along the length of the section. The radioactive guide consisted of ^14C-Glycine (American Radiolabeled Chemicals, “ARC”) at 0.5 uCi/ml in 0.5% BSA (Sigma Aldrich) in PBS. Sections were collected onto 4-inch wide tape (Scotch 821, ULINE) at 2-4 depths to sample approximately 30 tissues with particular focus on the knees and spine. Collected sections were freeze dried in the cryostat for 48-72 hours then mounted on sturdy paper and covered with a single protective layer of cellophane (Reynolds Food Service Film). Mounted sections were exposed to phosphor imager plates (Raytest) along with a radioactive standard Curve (1465-PL, ARC) for 7-days, scanned on a Raytest CR-35 at “25 μm sensitive” setting.
Quantification of the radioactivity detected in WBA samples was evaluated by measuring the pixel density/mm^2 (“SI”: Signal Intensity/Area−background) using AIDA Image Analyzer v 5.1 Whole Body Autoradiography Professional software (Raytest). Regions of interest (ROIs) were drawn manually around the entire visible tissue, comparing the sectioned sample to the autoradiogram. For quantification, all visible knee or IVD (intervertebral disc) tissues for one rodent across all collected sections were measured and averaged together to generate one knee or IVD value per animal. Typically were sampled 1-2 knee values (from femoral and tibial cartilage) per 1-2 sections per animal and 3-10 IVD per 1-2 sections per animal. To collect quantified values for other tissues, ROIs were drawn around blood in the heart ventricle, spinotrapezius muscle, the liver, or the kidney (including cortex and medulla) in all sections in which the tissue was observed and then averaged to yield one value per tissue per animal.
Data were presented as nmol of compound per gram of tissue. The commercial standard strips co-exposed with each WBA sample set were calibrated so that a known amount of radioactive counts per minute (CPM) per gram of tissue, determined by liquid scintillation counting (LSC), corresponded to the measured WBA SI at 11 standard strip concentration data points. The regression line of the log 10 transformed WBA signal intensity plotted against the log 10 transformed CPM/g gave a linear range of 1×10^5 to 7.5×10^7 WBA SI, corresponding to 6.3 nCi/g to 3.3 μCi/g. The log 10 concentration of radioactivity in each tissue (CPM/g) was interpolated from the standard curve, converted to linear values, and translated from CPM/g to uCi/g by interpolation against an LSC CPM to μCi standard curve. Uptake (nmol of compound/g of tissue) was determined by dividing the μCi/g tissue by the μCi/nmol specific activity of the peptide.
Peptide(SEQ ID NO: 105) was dosed at 57-60 nmol. Peptide(SEQ ID NO: 103) was dosed at 130 nmol. Peptide(SEQ ID NO: 184) was dosed at 150 nmol. […] It should be noted that detection of retention is based on an assay that detects radiolabeling of the N-terminus of each of the tested conjugates, thus decrease in signal over time may be due not only to peptide diffusion back out of the cartilage but also aminopeptidase-mediated removal of N-terminal amino acid, general peptide cleavage, or other mechanisms. Results as measured by QWBA methods described herein are shown in Tables 6 and 7 below and FIG. 11.

[3] = Immunohistochemistry of knee and ankle sections with anti-peptide(SEQ ID NO: 105) and anti-Dex antibodies; type: in vivo, C57/Bl6 mice; conditions: mice, 100 nmol IV, three hours
From the text: Immunohistochemistry methods were developed to detect peptide(SEQ ID NO: 105) and dexamethasone in cartilage of joints using a generated rabbit polyclonal anti-peptide(SEQ ID NO: 105) antibody and a commercially available anti-Dex antibody (Abcam, ab35000). Standard immunization methods were used to generate the anti-peptide(SEQ ID NO: 105) polyclonal antibody, which increases the immunogenicity of the dosed material and are not representative of potential immunogenicity of the unmodified peptide or therapeutic candidate molecules. To produce the immunogen for peptide(SEQ ID NO: 105) antibody generation, peptide(SEQ ID NO: 105) was conjugated to keyhole limpet hemocyanin (KLH) using ImjectTMmcKLH. Peptide(SEQ ID NO: 105)-KLH was administered as part of a pool of other KLH-conjugated peptides emulsified with Freund's complete adjuvant and administered to New Zealand White Rabbits following a standard schedule. The polyclonal antibody was purified from the serum using a HiTrap® mAb Select cartridge (GE Healthcare). Western blot was used to confirm antibody binding to the peptide. […]

[4] = Resistance to chemical reduction (50 mM DTT, LC-MS); type: physicochemical; conditions: 50 mM DTT for 60 minutes at room temperature
Description: The synthetically produced peptides were then analyzed side-by-side with peptides produced in the recombinant expression system as described above in EXAMPLE 1.

[5] = Biodistribution in mice of stable peptide-TAA conjugate by whole body autoradiography (QWBA); type: in vivo; conditions: 100 nmol IV, 3 hours and 24 hours
Description: Peptide(SEQ ID NO: 105)-^14C-Cys-TAA (38, the radiolabeled conjugate prepared in EXAMPLE 7) (“peptide(SEQ ID NO: 105)-^14C-Cys” is disclosed as SEQ ID NO: 512) or ^14C-Cys-TAA was resuspended in 5% DMSO in water. The amount of radioactivity per μ1 of solution was measured using liquid scintillation counting (LSC). Each compound was administered intravenously to mice at a dose of 12.4 μCi (100 nmol) and allowed to circulate for the designated time intervals. The mice were then humanely euthanized and carcasses were frozen in dry ice chilled hexane. QWBA was performed and quantified as described. […]
as §1

Substance: GSGVPINVRCRGSRDCLDPCRRAGMRFGRCINSRCHCTP [peptide(SEQ ID NO: 105)]
- accumulation in other tissues of the body ([1]; 400 nmol IV, 1, 3, 24 hrs, except liver and kidney): minimal accumulation
- signal in cartilage (whole body autoradiography) ([1]; 400 nmol IV, 1 hr, 3 hrs, 24 hrs): signal can be detected
- Peptide Signal Retention in IVD ([2]; 0.08 Hours): 44.42
- Peptide Signal Retention in Knee ([2]; 0.08 Hours): 91.00
- Peptide Signal Retention in IVD ([2]; 0.5 Hours): 101.41
- Peptide Signal Retention in Knee ([2]; 0.5 Hours): 102.49
- Peptide Signal Retention in IVD ([2]; 1 Hours): 100.00
- Peptide Signal Retention in Knee ([2]; 1 Hours): 100.00
- Peptide Signal Retention in IVD ([2]; 3 Hours): 106.39
- Peptide Signal Retention in Knee ([2]; 3 Hours): 72.64
- Peptide Signal Retention in IVD ([2]; 8 Hours): 81.45
- Peptide Signal Retention in Knee ([2]; 8 Hours): 42.42
- Peptide Signal Retention in IVD ([2]; 24 Hours): 36.89
- Peptide Signal Retention in Knee ([2]; 24 Hours): 22.61
- Peptide Signal Retention in IVD ([2]; 48 Hours): 19.96
- Peptide Signal Retention in Knee ([2]; 48 Hours): 9.73
- Peptide Signal Retention in IVD ([2]; 72 Hours): 13.43
- Peptide Signal Retention in Knee ([2]; 72 Hours): 8.76
- Peptide Signal Retention in IVD ([2]; 96 Hours): 9.17
- Peptide Signal Retention in Knee ([2]; 96 Hours): 5.05
- Immunostaining with anti-peptide(SEQ ID NO: 105) antibody in articular cartilage and growth plates of knee joint sections [3]: strong positive staining
- resistance to chemical reduction [4]: very little formation of a new peak

Substance: ^14C-Cys-triamicinolone acetonide [^14C-Cys-TAA, reference compound]
- signal in cartilage (whole body autoradiography) [5]: no observable signal
